Results from article PMC2892117 (Bioorganic & medicinal chemistry, 2010).
pIC50: −log10 of the molar value. Structures can show the parent of a compound that is named as a salt.

Tests used:
T. b. r. STIB 900 = assay: STIB900 mouse model for acute African trypanosomiasis; assay type: in vivo; conditions: for responders at 25 mg/kg / responders at 5 mg/kg: Mus musculus, 1440 h, read-out: Cures; for Survival / Survival (days): average days of mice survival; for Cures: number of mice that survive and are parasite free for 60 days
Plasmodium falciparum K1 = assay: In vitro assay with P. f. K1 strain; assay type: cell-based; conditions: K1, read-out: P. f. IC50
[1] = tested on: Trypanosoma brucei rhodesiense STIB900; assay: microbe, parasite or virus in culture; conditions: RHODESIENSE|STIB900, read-out: T. b. r. IC50

| SMILES | responders at 25 mg/kg (T. b. r. STIB 900; po) | Survival (T. b. r. STIB 900; po, 4 × 25 mg/kg) | responders at 5 mg/kg (T. b. r. STIB 900; ip) | further results |
| --- | --- | --- | --- | --- |
| Cl.Cl.N/C(=N\O)c1ccc(-c2cnc(-c3ccc(/C(N)=N\O)nc3)s2)cn1 [6e, 2,5-Bis-(2-N-hydroxyamidinopyridin-5-yl)thiazole dihydrochloride] | 25% | >37.5 days | – | – |
| Cl.Cl.N/C(=N\O)c1ccc(-c2cnc(-c3ccc(/C(N)=N\O)cn3)s2)nc1 [6g, 2,5-Bis(3-N-hydroxyamidinopyridin-6-yl)thiazole dihydrochloride] | 0% | 9 days | – | – |
| Cl.Cl.N=C(N)c1ccc(-c2cnc(-c3ccc(C(=N)N)cn3)s2)nc1 [5g, 2,5-Bis-(3-amidinopyridin-6-yl)thiazole dihydrochloride] | – | – | 0% | Survival (T. b. r. STIB 900; ip, 4 × 5 mg/kg): 21.5 days |
| Cl.Cl.N=C(N)c1ccc(-c2cnc(-c3ccc(C(=N)N)nc3)s2)cn1 [5e, 2,5-Bis(2-amidinopyridin-5-yl)thiazole dihydrochloride] | – | – | 0% | Survival (T. b. r. STIB 900; ip, 4 × 5 mg/kg): 50.5 days |
| CO/N=C(\N)c1ccc(-c2cnc(-c3ccc(/C(N)=N\OC)nc3)s2)cn1.Cl.Cl [7e, 2,5-Bis(2-N-methoxyamidinopyridin-5-yl)thiazole dihydrochloride] | 25% | >47.25 days | – | – |
| Cl.Cl.N/C(=N\O)c1ccc(-c2cnc(-c3ccc(/C(N)=N\O)cn3)s2)cc1 [6c, 5-(4-N-hydroxyamidinophenyl)-2-(3-N-hydroxyamidinopyridin-6-yl)thiazole dihydrochloride] | 0% | 24 days | – | – |
| CO/N=C(\N)c1ccc(-c2cnc(-c3ccc(/C(N)=N\OC)cn3)s2)cc1.Cl.Cl [7c, 5-(4-N-methoxyamidinophenyl)-2-(3-N-methoxyamidinopyridin-6-yl)thiazole dihydrochloride] | 0% | 35 days | – | – |
| CO/N=C(\N)c1ccc(-c2cnc(-c3ccc(/C(N)=N\OC)cn3)s2)nc1 [7g, 2,5-Bis(3-N-methoxyamidinopyridin-6-yl)thiazole dihydrochloride] | 0% | – | – | – |
| Cl.Cl.N/C(=N\O)c1ccc(-c2cnc(-c3ccc(/C(N)=N/O)nc3)s2)cc1 [6b, 5-(4-N-hydroxyamidinophenyl)-2(2-N-hydroxyamidinopyridin-5-yl)thiazole dihydrochloride] | 0% | 37.5 days | – | – |
| N=C(N)c1ccc(-c2ccc(-c3ccc(C(=N)N)cc3)s2)cc1 [IIe, reference compound] | – | – | 50% | Survival (T. b. r. STIB 900; ip, 4 × 5 mg/kg): >48.75 days |
| N=C(N)c1ccc(-c2cnc(-c3ccc(C(=N)N)cn3)s2)cc1 [5c, 5-(4-Amidinophenyl)-2-(3-amidinopyridin-6-yl)thiazole dihydrochloride] | – | – | 0% | – |
| CO/N=C(\N)c1ccc(-c2ccc(-c3ccc(/C(N)=N/OC)cn3)o2)cc1 [IId, reference compound] | – | – | – | Survival (days) (T. b. r. STIB 900; po, 4 × 5 mg/kg): >60 >60 days; Cures (T. b. r. STIB 900; po, 4 × 5 mg/kg): 4/4 4/4; Survival (days) (T. b. r. STIB 900; po, 4 × 25 mg/kg): >60 >60 days; Cures (T. b. r. STIB 900; po, 4 × 25 mg/kg): 4/4 4/4 |
| Cl.Cl.N=C(N)c1ccc(-c2cnc(-c3ccc(C(=N)N)cc3)s2)cc1 [5a, 2,5-Bis(4-amidinophenyl)thiazole dihydrochloride] | – | – | 25% | Survival (T. b. r. STIB 900; ip, 4 × 5 mg/kg): >44.5 days; Cures (T. b. r. STIB 900; ip, 4 × 5 mg/kg, 5 mg/kg): 1 of four and one of four |
| CO/N=C(/N)c1ccc(-c2cnc(-c3ccc(/C(N)=N\OC)cc3)s2)cc1.Cl.Cl [7a, 2,5-Bis-(4-N-methoxyamidinophenyl)thiazole dihydrochloride] | 0% | 41 days | – | – |
| N=C(N)c1ccc(-c2ccc(-c3ccc(C(=N)N)cn3)o2)cc1 [IIc, azafuramidine, reference compound] | – | – | 75% | pIC50 (Plasmodium falciparum K1): 8.19; Survival (T. b. r. STIB 900; ip, 4 × 5 mg/kg): >54.5 days; pIC50 [1]: 8.15 |
| CO/N=C(\N)c1ccc(-c2cnc(-c3ccc(/C(N)=N/OC)nc3)s2)cc1.Cl [7b, 5-(4-N-methoxyamidinophenyl)-2-(2-N-methoxyamidinopyridin-5-yl)thiazole dihydrochlodide] | 0% | 42.75 days | – | – |
| N=C(N)c1ccc(-c2ccc(-c3ccc(C(=N)N)cc3)o2)cc1 [IIa, furamidine] | – | – | – | Survival (T. b. r. STIB 900; ip, 4 × 5 mg/kg): >46 days; pIC50 [1]: 8.49 |
| Cl.Cl.N/C(=N\O)c1ccc(-c2ncc(-c3ccc(/C(N)=N\O)nc3)s2)cc1 [6d, 2-(4-N-hydroxyamidinophenyl)-5-(2-N-hydroxyamidinopyridin-5yl)thiazole dihydrochloride] | 0% | 36.75 days | – | – |
| N/C(=N/O)c1ccc(-c2cnc(-c3ccc(/C(N)=N\O)cc3)s2)cc1 [6a, 2,5-Bis-(4-N-hydroxyamidinophenyl)thiazole dihydrochloride] | 0% | – | – | – |
| CONC(=N)c1ccc(-c2ccc(-c3ccc(C(=N)NOC)cc3)o2)cc1 [IIb, Pafuramidine, reference compound] | – | > 60 days | – | Cures (T. b. r. STIB 900; po, 4 × 5 mg/kg): 0/4; Cures (T. b. r. STIB 900; po, 4 × 25 mg/kg): 4/4 |
| N=C(N)c1ccc(-c2ncc(-c3ccc(C(=N)N)nc3)s2)nc1 [5f, 2-(3-Amidinopyridin-6-yl)-5-(2-amidinopyridin-5-yl)thiazole dihydrochloride] | – | – | 0% | – |
| Cl.Cl.N=C(N)c1ccc(-c2ncc(-c3ccc(C(=N)N)nc3)s2)cc1 [5d, 2-(4-Amidinophenyl)-5-(2-amidinopyridin-5-yl)thiazole dihydrochloride] | – | – | 0% | Survival (T. b. r. STIB 900; ip, 4 × 5 mg/kg): >36 days |
| N=C(N)c1ccc(-c2cnc(-c3ccc(C(=N)N)nc3)s2)cc1 [5b, 5-(4-Amidinophenyl)-2-(2-amidinopyridin-5-yl)thiazole dihydrochloride] | – | – | 0% | – |
| N=C(N)c1ccc(OCCCCCOc2ccc(C(=N)N)cc2)cc1 [I, pentamidine, reference compound] | – | – | 50% | – |
